The experiment has as its target T1, human 5-HT4e receptor (Homo sapiens, UniProt Q13639).
T1 construct: expressed in transfected cells; host or cells: CHO cells
As to the kind of experiment: Binding affinity assay, radioligand [3H]GR 113808 binding in transfected CHO cell membrane homogenates. Particulars: 0.3 nM [3H]GR 113808; for Ki: human 5-HT4e receptor in transfected CHO cells, read-out: KI (μM or % inhibition); for inhibition at 0.3 µM: @ 0.3 uM test compound; for inhibition at 0.3 µM / inhibition at 3 µM: read-out: KI (μM or % inhibition): percent inhibition of the control radioligand specific binding; for inhibition at 3 µM: @ 3 uM test compound. The protocol:
The evaluation of the affinity of compounds for the human 5-HT4e receptor in transfected CHO cells was determined in a radioligand binding assay. Experimental protocol: Cell membrane homogenates (140 μg protein) were incubated for […] at 37° C. with 0.3 nM [3H]GR 113808 in the absence or presence of the test compound in a buffer containing 50 mM Hepes/Tris (pH 7.4) and 1 μM pargyline. Nonspecific binding was determined in the presence of 100 μM 5-HT. Following incubation, the samples were filtered rapidly under vacuum through glass fiber filters (GF/B, Packard) presoaked with 0.3% PEI and rinsed several times with ice-cold 50 mM Tris-HCl using a 96-sample cell harvester (Unifilter, Packard). The filters were dried then counted for radioactivity in a scintillation counter (Topcount, Packard) using a scintillation cocktail (Microscint 0, Packard). The results are expressed as a percent inhibition of the control radioligand specific binding at a certain concentration of the test compound. The test compound can also be assessed at several concentrations to obtain a competition curve from which its IC50 and Ki are calculated.

By Ki is commonly meant the equilibrium dissociation constant of an inhibitor or competing ligand from its target. The term inhibition denotes the drop in the measured response relative to a control, in per cent.

Where a name gives a salt, the structure may show the parent alone.

T1 sequence (Q13639 1-378 isoform Q13639-5): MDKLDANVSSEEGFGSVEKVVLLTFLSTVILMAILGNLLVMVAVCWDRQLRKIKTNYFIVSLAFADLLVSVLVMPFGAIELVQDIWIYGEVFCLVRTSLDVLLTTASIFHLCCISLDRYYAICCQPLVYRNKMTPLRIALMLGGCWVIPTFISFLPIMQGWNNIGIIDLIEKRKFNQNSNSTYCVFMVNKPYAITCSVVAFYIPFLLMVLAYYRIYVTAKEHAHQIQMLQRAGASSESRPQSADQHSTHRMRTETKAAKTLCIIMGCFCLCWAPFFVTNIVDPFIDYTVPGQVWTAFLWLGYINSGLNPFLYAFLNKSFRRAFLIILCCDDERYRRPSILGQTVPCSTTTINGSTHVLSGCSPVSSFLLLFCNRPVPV

For the molecule `CCn1cc(C(=O)C(=O)NCCN2CCCCC2)c2ccccc21` [Example 4, 2-(1-Ethyl-1H-indol-3-yl)-2-oxo-N-(2-(piperidin-1-yl)ethyl)acetamide hydrochloride], the Ki was determined as 0.005 µM.

In the case of `CC(C)n1cc(C(=O)C(=O)NCCCN2CCCCC2)c2ccccc21` [Example 1, 2-(1-Isopropyl-1H-indol-3-yl)-2-oxo-N-(3-(piperidin-1-yl)propyl)acetamide hydrochloride], the Ki was found to be 0.007 µM.

Turning to `CC(C)n1cc(C(=O)C(=O)NCCN2CCCCC2)c2ccc(N)c(Cl)c21` [Example 9, 2-(6-Amino-7-chloro-1-isopropyl-1H-indol-3-yl)-2-oxo-N-(2-(piperidin-1-yl)ethyl)acetamide hydrochloride], the inhibition constant Ki is 0.1 µM.

For the molecule `CC(C)n1cc(C(=O)C(=O)NCCN2CCCCC2)c2ccccc21` [Example 2, 2-(1-Isopropyl-1H-indol-3-yl)-2-oxo-N-(2-(piperidin-1-yl)ethyl)acetamide hydrochloride], the Ki worked out at 0.005 µM.

Take `CCCCC1CCN(CCNC(=O)C(=O)c2cn(C(C)C)c3ccccc23)CC1` [Example 24, N-(2-(4-Butylpiperidin-1-yl)ethyl)-2-(1-isopropyl-1H-indol-3-yl)-2-oxoacetamide]: the inhibition at 0.3 µM came out at 95% and the inhibition at 3 µM is 101%.

As to `CC(C)n1cc(C(=O)C(=O)NC2CCN(CCNS(C)(=O)=O)CC2)c2ccccc21` [Example 21, 2-(1-Isopropyl-1H-indol-3-yl)-N-(1-(2-(methylsulfonamido)ethyl)piperidin-4-yl)-2-oxoacetamide TFA salt], the inhibition at 0.3 µM was determined as 95% and the inhibition at 3 µM was found to be 101%.

In the case of `CC(C)n1cc(C(=O)C(=O)NCCN2CCC(CCO)CC2)c2ccccc21` [Example 22, N-(2-(4-(2-Hydroxyethyl)piperidin-1-yl)ethyl)-2-(1-isopropyl-1H-indol-3-yl)-2-oxoacetamide hydrochloride], the inhibition at 0.3 µM is 99% and the inhibition at 3 µM came to 101%.

Consider `CC(C)n1cc(C(=O)C(=O)NCCN2CCC(C(F)(F)F)CC2)c2ccccc21` [Example 16, 2-(1-Isopropyl-1H-indol-3-yl)-2-oxo-N-(2-(4-(trifluoromethyl)piperidin-1-yl)ethyl)acetamide], for which the Ki turned out to be 0.023 µM.

Turning to `CC(C)n1cc(C(=O)C(=O)NCCN2CCCCC2)c2cccnc21` [Example 17, 2-(1-Isopropyl-1H-pyrrolo[2,3-b]pyridin-3-yl)-2-oxo-N-(2-(piperidin-1-yl)ethyl)acetamide], the Ki turned out to be 0.022 µM.

As to `CCCN1CCC(NC(=O)C(=O)c2cn(C(C)C)c3ccccc23)CC1` [Example 14, 2-(1-Isopropyl-1H-indol-3-yl)-2-oxo-N-(1-propylpiperidin-4-yl)acetamide], the Ki was determined as 0.0027 µM.

For the molecule `CC(C)n1cc(C(=O)C(=O)NCCN2CCCCC2)c2ccc(N)cc21` [Example 8, 2-(6-Amino-1-isopropyl-1H-indol-3-yl)-2-oxo-N-(2-(piperidin-1-yl)ethyl)acetamide hydrochloride], the Ki was found to be 0.75 µM.

With `CCCCN1CCC(NC(=O)C(=O)c2cn(C(C)C)c3ccccc23)CC1` [Example 19, N-(1-Butylpiperidin-4-yl)-2-(1-isopropyl-1H-indol-3-yl)-2-oxoacetamide], the Ki was determined as 0.0025 µM.

On to `CC(C)n1cc(C(=O)C(=O)NCCN2CCCCC2)c2ccc([N+](=O)[O-])cc21` [Example 7, 2-(1-Isopropyl-6-nitro-1H-indol-3-yl)-2-oxo-N-(2-(piperidin-1-yl)ethyl)acetamide hydrochloride], for which the Ki came out at 2.7 µM.

Turning to `CC(C)CN1CCC(CNC(=O)C(=O)c2cn(C(C)C)c3ccccc23)CC1` [Example 15, N-((1-Isobutylpiperidin-4-yl)methyl)-2-(1-isopropyl-1H-indol-3-yl)-2-oxoacetamide], the Ki stood at 0.016 µM.

Turning to `Cc1ccc2c(c1)c(C(=O)C(=O)NCCN1CCCCC1)cn2C(C)C` [Example 12, 2-(1-isopropyl-5-methyl-1H-indol-3-yl)-2-oxo-N-(2-(piperidin-1-yl)ethyl)acetamide], the Ki was 0.071 µM.

For `CCCC1CCN(CCNC(=O)C(=O)c2cn(C(C)C)c3ccccc23)CC1` [Example 18, 2-(1-Isopropyl-1H-indol-3-yl)-2-oxo-N-(2-(4-propylpiperidin-1-yl)ethyl)acetamide TFA salt], the inhibition at 0.3 µM was found to be 99% and the inhibition at 3 µM came to 102%.

In the case of `CCN(CC)CCNC(=O)C(=O)c1cn(C(C)C)c2ccccc12` [Example 3, N-(2-(Diethylamino)ethyl)-2-(1-isopropyl-1H-indol-3-yl)-2-oxoacetamide hydrochloride], the Ki was 0.008 µM.

As for `CC(C)n1cc(C(=O)C(=O)NC2CCN(CCCO)CC2)c2ccccc21` [Example 13, N-(1-(3-Hydroxypropyl)piperidin-4-yl)-2-(1-isopropyl-1H-indol-3-yl)-2-oxoacetamide], the Ki worked out at 0.0024 µM.

Regarding `CC(C)n1cc(C(=O)C(=O)NCCN2CCCCC2)c2cc(Cl)ccc21` [Example 6, 2-(5-Chloro-1-isopropyl-1H-indol-3-yl)-2-oxo-N-(2-(piperidin-1-yl)ethyl)acetamide hydrochloride], the inhibitory constant (Ki) came to 0.047 µM.

As for `CCC(C)n1cc(C(=O)C(=O)NCCN2CCCCC2)c2ccccc21` (centres unmarked) [Example 5, 2-(1-sec-Butyl-1H-indol-3-yl)-2-oxo-N-(2-(piperidin-1-yl)ethyl)acetamide hydrochloride], the Ki stood at 0.031 µM.

Turning to `CC(C)n1cc(C(=O)C(=O)NCCN2CCCC2)c2ccccc21` [Example 10, 2-(1-Isopropyl-1H-indol-3-yl)-2-oxo-N-(2-(pyrrolidin-1-yl)ethyl)acetamide], the inhibitory constant (Ki) is 0.013 µM.

On to `COCCCN1CCC(NC(=O)C(=O)c2cn(C(C)C)c3ccccc23)CC1` [Example 20, 2-(1-Isopropyl-1H-indol-3-yl)-N-(1-(3-methoxypropyl)piperidin-4-yl)-2-oxoacetamide TFA salt], for which the inhibition constant Ki was determined as 0.0069 µM.

With `CCC1CCN(CCNC(=O)C(=O)c2cn(C(C)C)c3ccccc23)CC1` [Example 23, N-(2-(4-ethylpiperidin-1-yl)ethyl)-2-(1-isopropyl-1H-indol-3-yl)-2-oxoacetamide hydrochloride], the inhibition at 0.3 µM was determined as 99% and the inhibition at 3 µM was determined as 101%.

`COc1ccc2c(c1)c(C(=O)C(=O)NCCN1CCCCC1)cn2C(C)C` [Example 11, 2-(1-Isopropyl-5-methoxy-1H-indol-3-yl)-2-oxo-N-(2-(piperidin-1-yl)ethyl)acetamide]: the Ki worked out at 0.31 µM.

Source of the values: patent US8114894B2, “Bicyclic compounds and methods of making and using same” (Nanotherapeutics, Inc., priority 2008, dated 2012).
